From patent EP4603105A1, “PHARMACEUTICAL COMPOSITION CONTAINING CYCLIC COMPOUND HAVING SELECTIVE KRAS INHIBITORY EFFECT AGAINST HRAS AND NRAS” (CHUGAI SEIYAKU KABUSHIKI KAISHA, priority 2022, dated 2024)

Experiments:
[1] = target: GDP-bound KRAS wild-type protein (Homo sapiens, UniProt P01116); assay: Binding to KRAS by surface plasmon resonance (SPR), dissociation constant KD; conditions: Single Cycle Kinetics, 1:1 binding model
Procedure, shortened: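 Each cycle, GDP-bound biotin-Avi RAS was captured (~100–300 RU), compound concentrations were injected low to high for 75 s each at 100 µL/min, then the chip was regenerated. Buffer: HBS pH 7.4, 10 mM MgCl2, 10 µM GDP, 1 mM DTT, 4% DMSO; 30°C. KD from a 1:1 binding model.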

[2] = target: GDP-bound NRAS wild-type protein (Homo sapiens, UniProt P01111); assay: Binding to NRAS by surface plasmon resonance (SPR), KD and KD ratio to KRAS; conditions: ratio of KD with respect to GDP-bound NRAS wild-type protein to KD with respect to KRAS
Procedure, shortened: (§1)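 GDP-loaded biotinylated Avi-tag RAS proteins (E. coli-expressed) captured on a Biotin CAPture chip at ~100–300 RU; single-cycle kinetics at 30°C, 100 µL/min, 75 s injections of rising compound concentrations. HBS pH 7.4 running buffer with 1 mM DTT, 10 mM MgCl2, 10 µM GDP, 4% DMSO. KD from 1:1 binding fit.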

HRAS wild-type protein = HRAS wild-type protein (Homo sapiens, UniProt P01112); assay: Binding to HRAS by surface plasmon resonance (SPR), KD and KD ratio to KRAS; conditions: ratio of KD with respect to HRAS wild-type protein to KD with respect to KRAS
Procedure, shortened: as §1

[3] = system: human lung cancer strain NCI-H441; assay: NCI-H441 cell proliferation inhibitory activity (CellTiter-Glo, 4 days); type: cell-based; conditions: 50% proliferation inhibitory concentration, four days, read-out: NCl-H441 IC50
Procedure, shortened: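 Readout: […] after the ATP-based reagent. Compound: serial dilutions in dimethyl sulfoxide.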

Sequence of GDP-bound KRAS wild-type protein (P01116 1-188 isoform P01116-2): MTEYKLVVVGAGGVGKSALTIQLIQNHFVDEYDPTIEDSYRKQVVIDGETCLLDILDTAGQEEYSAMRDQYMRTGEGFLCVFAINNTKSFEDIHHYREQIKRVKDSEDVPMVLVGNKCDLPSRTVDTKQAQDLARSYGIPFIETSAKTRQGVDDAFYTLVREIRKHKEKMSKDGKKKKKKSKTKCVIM
Sequence of HRAS wild-type protein (P01112 whole entry): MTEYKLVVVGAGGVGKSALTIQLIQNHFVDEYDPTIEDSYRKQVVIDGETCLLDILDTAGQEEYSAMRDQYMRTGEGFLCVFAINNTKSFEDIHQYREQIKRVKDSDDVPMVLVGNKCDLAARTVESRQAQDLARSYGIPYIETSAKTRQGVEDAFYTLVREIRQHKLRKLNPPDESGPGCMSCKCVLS
Sequence of GDP-bound NRAS wild-type protein (P01111 whole entry): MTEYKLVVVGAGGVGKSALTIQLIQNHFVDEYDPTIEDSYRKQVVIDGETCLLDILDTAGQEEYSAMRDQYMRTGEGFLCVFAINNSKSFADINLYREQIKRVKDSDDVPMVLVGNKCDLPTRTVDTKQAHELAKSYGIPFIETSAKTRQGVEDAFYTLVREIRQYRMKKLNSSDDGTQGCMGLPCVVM

| SMILES | Kd [1] | NRAS /KRAS [2] | HRAS /KRAS (HRAS wild-type protein) | IC50 [3] |
| --- | --- | --- | --- | --- |
| CCO[C@@H]1C[C@H]2C(=O)NC3(CCC3)C(=O)N(C)[C@@H](C3CCCC3)C(=O)N(C)[C@H](C(=O)N3CCCCC3)CC(=O)N(C)[C@@H](CC3CC3)C(=O)N[C@@H]([C@@H](C)CC)C(=O)N(C)CC(=O)N(C)[C@H]3C/C=C\CCN(C3=O)[C@@H](Cc3ccc(C(F)(F)F)cc3)C(=O)N(C)CC(=O)N[C@@H](CCc3cc(F)c(C(F)(F)F)c(F)c3)C(=O)N2C1 [PP1291] | 0.24 nM | A (a compound having 10 or more and less than 20 is denoted as A) | A (a compound having 10 or more and less than 20 is denoted as A) | 16.7 nM |
| CCO[C@@H]1C[C@H]2C(=O)NC3(CCC3)C(=O)N(C)[C@@H](C3CCCC3)C(=O)N(C)[C@H](C(=O)N3CCCC3)CC(=O)N(C)[C@@H](CC(C)C)C(=O)N[C@@H]([C@@H](C)CC)C(=O)N(C)CC(=O)N(C)[C@H]3C/C=C\CCN(C3=O)[C@@H](Cc3ccc(C(F)(F)F)cc3)C(=O)N(C)CC(=O)N[C@@H](CCc3cc(F)c(C(F)(F)F)c(F)c3)C(=O)N2C1 [PP1295] | 0.12 nM | AA (a compound having 20 or more is denoted as AA) | A (a compound having 10 or more and less than 20 is denoted as A) | 6.2 nM |
| CCO[C@@H]1C[C@H]2C(=O)NC3(CCC3)C(=O)N(C)[C@@H](C3CCCC3)C(=O)N(C)[C@H](C(=O)N3CCCC3)CC(=O)N(C)[C@@H](CC3CC3)C(=O)N[C@@H]([C@@H](C)CC)C(=O)N(C)CC(=O)N(C)[C@H]3C/C=C\CCN(C3=O)[C@@H](Cc3ccc(C(F)(F)F)cc3)C(=O)N(C)CC(=O)N[C@@H](CCc3cc(F)c(C(F)(F)F)c(F)c3)C(=O)N2C1 [PP1296] | 0.12 nM | AA (a compound having 20 or more is denoted as AA) | A (a compound having 10 or more and less than 20 is denoted as A) | 14.7 nM |
| CCO[C@@H]1C[C@H]2C(=O)NC3(CCC3)C(=O)N(C)[C@@H](C3CCCC3)C(=O)N(C)[C@H](C(=O)N3CCCC3)CC(=O)N(C)[C@@H](CC(F)F)C(=O)N[C@@H]([C@@H](C)CC)C(=O)N(C)CC(=O)N(C)[C@H]3C/C=C\CCN(C3=O)[C@@H](Cc3ccc(C(F)(F)F)cc3)C(=O)N(C)CC(=O)N[C@@H](CCc3cc(F)c(C(F)(F)F)c(F)c3)C(=O)N2C1 [PP1298] | 0.13 nM | AA (a compound having 20 or more is denoted as AA) | A (a compound having 10 or more and less than 20 is denoted as A) | 11.4 nM |
| C#CC[C@H]1C(=O)N[C@@H]([C@@H](C)CC)C(=O)N(C)CC(=O)N(C)[C@H]2CC[C@@H](C)CN(C2=O)[C@@H](Cc2ccc(C(F)(F)F)cc2)C(=O)N(C)CC(=O)N[C@@H](CCc2ccc(C(F)(F)F)c(Cl)c2)C(=O)N2CCC[C@H]2C(=O)NC2(CCCC2)C(=O)N(C)[C@@H](C2CCCC2)C(=O)N(C)[C@H](C(=O)N(C)C)CC(=O)N1C [PP1340] | 0.081 nM | B (a compound having 3 or more and less than 10 is denoted as B) | B (a compound having 3 or more and less than 10 is denoted as B) | 10.9 nM |
| CC[C@H](C)[C@@H]1NC(=O)[C@H](CC2CCC2)N(C)C(=O)C[C@@H](C(=O)N(C)C)N(C)C(=O)[C@H](C2CCCC2)N(C)C(=O)C2(CCCC2)NC(=O)[C@@H]2CCCN2C(=O)[C@H](CCc2ccc(C(F)(F)F)c(Cl)c2)NC(=O)CN(C)C(=O)[C@H](Cc2ccc(C(F)(F)F)cc2)N2C[C@H](C)CC[C@@H](C2=O)N(C)C(=O)CN(C)C1=O [PP1342] | 0.091 nM | B (a compound having 3 or more and less than 10 is denoted as B) | B (a compound having 3 or more and less than 10 is denoted as B) | 5 nM |
| CCO[C@@H]1C[C@H]2C(=O)NC3(CCCC3)C(=O)N(C)[C@@H](C3CCCC3)C(=O)N(C)[C@H](C(=O)N(C)C)CC(=O)N(C)[C@@H](CC)C(=O)N[C@@H]([C@@H](C)CC)C(=O)N(C)CC(=O)N(C)[C@H]3C[C@H](C)C(C)CN(C3=O)[C@@H](Cc3ccc(C(F)(F)F)cc3)C(=O)N(C)CC(=O)N[C@@H](CCc3cc(F)c(C(F)(F)F)c(F)c3)C(=O)N2C1 (stereo partly drawn) [PP1347] | 0.017 nM | B (a compound having 3 or more and less than 10 is denoted as B) | B (a compound having 3 or more and less than 10 is denoted as B) | 3.6 nM |
| CCO[C@@H]1C[C@H]2C(=O)NC3(CCCC3)C(=O)N(C)[C@@H](C3CCCC3)C(=O)N(C)[C@H](C(=O)N3CCOCC3)CC(=O)N(C)[C@@H](CC)C(=O)N[C@@H]([C@@H](C)CC)C(=O)N(C)CC(=O)N(C)[C@H]3C[C@H](C)C(C)CN(C3=O)[C@@H](Cc3ccc(C(F)(F)F)cc3)C(=O)N(C)CC(=O)N[C@@H](CCc3cc(F)c(C(F)(F)F)c(F)c3)C(=O)N2C1 (stereo partly drawn) [PP1348] | 0.076 nM | B (a compound having 3 or more and less than 10 is denoted as B) | B (a compound having 3 or more and less than 10 is denoted as B) | 8.7 nM |
| CCO[C@@H]1C[C@H]2C(=O)NC3(CCC3)C(=O)N(C)[C@@H](C3CCCC3)C(=O)N(C)[C@H](C(=O)N3CCOCC3)CC(=O)N(C)[C@@H](CC)C(=O)N[C@@H]([C@@H](C)CC)C(=O)N3CC[C@H]3C(=O)N(C)[C@H]3C[C@@H](C)[C@@H](C)CN(C3=O)[C@@H](Cc3ccc(C(F)(F)F)cc3)C(=O)N(C)CC(=O)N[C@@H](CCc3cc(F)c(C(F)(F)F)c(F)c3)C(=O)N2C1 [PP1351] | 0.13 nM | A (a compound having 10 or more and less than 20 is denoted as A) | B (a compound having 3 or more and less than 10 is denoted as B) | 12.8 nM |
| CCO[C@@H]1C[C@H]2C(=O)NC3(CCCC3)C(=O)N(C)[C@@H](C3CCCC3)C(=O)N(C)[C@H](C(=O)N(C)C)CC(=O)N(C)[C@@H](CC)C(=O)N[C@@H]([C@@H](C)CC)C(=O)N(C)CC(=O)N(C)[C@H]3C[C@@H](C)[C@@H](C)CN(C3=O)[C@@H](Cc3ccc(C(F)(F)F)cc3)C(=O)N(C)CC(=O)N[C@@H](CCc3cc(F)c(C(F)(F)F)c(F)c3)C(=O)N2C1 [PP1352] | 0.024 nM | A (a compound having 10 or more and less than 20 is denoted as A) | B (a compound having 3 or more and less than 10 is denoted as B) | 4.6 nM |
| CCO[C@@H]1C[C@H]2C(=O)NC3(CCCC3)C(=O)N(C)[C@@H](C3CCCC3)C(=O)N(C)[C@H](C(=O)N3CCOCC3)CC(=O)N(C)[C@@H](CC)C(=O)N[C@@H]([C@@H](C)CC)C(=O)N(C)CC(=O)N(C)[C@H]3C[C@@H](C)[C@@H](C)CN(C3=O)[C@@H](Cc3ccc(C(F)(F)F)cc3)C(=O)N(C)CC(=O)N[C@@H](CCc3cc(F)c(C(F)(F)F)c(F)c3)C(=O)N2C1 [PP1353] | 0.1 nM | A (a compound having 10 or more and less than 20 is denoted as A) | B (a compound having 3 or more and less than 10 is denoted as B) | 3.7 nM |
| CCO[C@@H]1C[C@H]2C(=O)NC3(CCC3)C(=O)N(C)[C@@H](C3CCCC3)C(=O)N(C)[C@H](C(=O)N3CCOCC3)CC(=O)N(C)[C@@H](CC)C(=O)N[C@@H]([C@@H](C)CC)C(=O)N(C)CC(=O)N(C)[C@H]3C[C@@H](C)[C@@H](C)CN(C3=O)[C@@H](Cc3ccc(C(F)(F)F)cc3)C(=O)N(C)CC(=O)N[C@@H](CCc3cc(F)c(C(F)(F)F)c(F)c3)C(=O)N2C1 [PP1354] | 0.056 nM | A (a compound having 10 or more and less than 20 is denoted as A) | B (a compound having 3 or more and less than 10 is denoted as B) | 3.6 nM |
| CCO[C@@H]1C[C@H]2C(=O)NC3(CCC3)C(=O)N(C)[C@@H](C3CCCC3)C(=O)N(C)[C@H](C(=O)N3CCOCC3)CC(=O)N(C)[C@@H](CC(C)C)C(=O)N[C@@H]([C@@H](C)CC)C(=O)N3CC[C@H]3C(=O)N(C)[C@H]3C[C@@H](C)[C@@H](C)CN(C3=O)[C@@H](Cc3ccc(C(F)(F)F)cc3)C(=O)N(C)CC(=O)N[C@@H](CCc3cc(F)c(C(F)(F)F)c(F)c3)C(=O)N2C1 [PP1355] | 0.16 nM | A (a compound having 10 or more and less than 20 is denoted as A) | B (a compound having 3 or more and less than 10 is denoted as B) | 10.2 nM |
| CCO[C@@H]1C[C@H]2C(=O)NC3(CCCC3)C(=O)N(C)[C@@H](C3CCCC3)C(=O)N(C)[C@H](C(=O)N(C)C)CC(=O)N(C)[C@@H](CC3CC3)C(=O)N[C@@H]([C@@H](C)CC)C(=O)N(C)CC(=O)N(C)[C@H]3C[C@@H](C)[C@@H](C)CN(C3=O)[C@@H](Cc3ccc(C(F)(F)F)cc3)C(=O)N(C)CC(=O)N[C@@H](CCc3cc(F)c(C(F)(F)F)c(F)c3)C(=O)N2C1 [PP1356] | 0.047 nM | B (a compound having 3 or more and less than 10 is denoted as B) | B (a compound having 3 or more and less than 10 is denoted as B) | 3.3 nM |
| CCO[C@@H]1C[C@H]2C(=O)NC3(CCC3)C(=O)N(C)[C@@H](C3CCCC3)C(=O)N(C)[C@H](C(=O)N3CCOCC3)CC(=O)N(C)[C@@H](CC)C(=O)N[C@@H]([C@@H](C)CC)C(=O)N3CC[C@H]3C(=O)N(C)[C@H]3C[C@@H](C)[C@@H](C)CN(C3=O)[C@@H](Cc3ccc(C(F)(F)F)cc3)C(=O)N(C)CC(=O)N[C@@H](CCc3ccc(C(F)(F)F)c(Cl)c3)C(=O)N2C1 [PP1357] | 0.13 nM | A (a compound having 10 or more and less than 20 is denoted as A) | B (a compound having 3 or more and less than 10 is denoted as B) | 5.4 nM |
